We go through seven molecules from patent publication US6572896B1, “Methods for inhibiting cell motility” (A.T. Still University of Health Sciences, priority 1998, dated 2003).

Several values for one entry are separate records, joined by “and”; a condition that tells them apart may be missing. Identical values can stand only once. Like-named read-outs stand apart in the source and are kept apart here. Marks after values point to notes of the source that are not given here.

In data set [1] the test system is B16F10 melanoma cells. The data set can be described thus: Motility assay in blind-well migration chambers with gelatin-coated filter. The following applies: for Motility with Verapamil (mean number of cells per filter): n = 2 filters. The data set is classed as cell-based.
For data set [2], the system named is B16F10 melanoma cells. Kind of data set: Microscopic examination of cell morphology. The following applies: 4 hours. The data set is classed as cell-based. The method, then:
Cell morphology was examined under conditions that were used in the motility assays. B16F10 melanoma cells were cultured directly on gelatin coated glass cover slips (0.1% gelatin for 2 hours and then air dried) for 24 hours under standard cell culture conditions. Culture media was then removed and the cells were washed twice with phosphate buffered saline (PBS) before being exposed to either 0.54 mM, 5.4 mM, or 54 mM K^+ in iso-osmotic saline solutions that were based on the electrolyte composition of RPMI-1640 media. Some solutions also contained GdCl3 or TbCl3 in a concentration of 20 μM. The cells were incubated at 5% CO2 and 37° C. for 4 hours before cells were photographed using an Olympus (IMT-2) inverted microscope.
In order to examine the effects of Gd^3+ and extracellular K^+ concentration on the morphology of the cells, B16F10 melanoma cells were grown under normal conditions on gelatin-coated glass coverslips. The cells were then washed twice with PBS and placed in solutions containing the following concentrations of K^+ and Gd^3+ for exposure periods of 4 hours: […]

Data set [3] has as its system B16F10 cells. Kind of data set: Trypan blue exclusion assay (cell viability).
Method: A test was run to determine the toxicity of Gd^3+ on cells when exposed for seven hours. B16F10 cells were incubated for 12 hours with Gd^3+ at a concentration of 20 μM in the RPMI-E2 solution. A different batch of B16F10 cells were incubated for 12 hours without Gd^3+ in the RPMI-E2 solution. The cells were then examined with a Trypan blue exclusion assay.
Data set [4] relates to B16F10 cells. Kind of data set: Cell growth after 12 hour Gd^3+ exposure and washout. The following applies: Gd^3+ 20 μM in RPMI-E2 12 hours, washed, then growth medium without Gd^3+. The data set is classed as cell-based. The method, then:
The potential long term effects of Gd^3+ on cell growth were determined. […] The cell growth was observed after the Gd^3+ was washed from the cells.

Data set [5] concerns voltage-gated channels that control quantal neurotransmitter release. Conditions: Gd^3+ up to 100 μM; cited from earlier work.
For data set [6], the system named is A2058 human melanoma cells. Conditions: cited from earlier work.
[7] abbreviates: Gd^3+ 20 μM in RPMI-E2, 12 hours.
[8] abbreviates: GdCl3 20 μM, RPMI-E2, normal K^+ and Ca^2+, seven hours, two independent runs.

With `COc1ccc(CCN(C)CCCC(C#N)(c2ccc(OC)c(OC)c2)C(C)C)cc1OC` (centres unmarked) [Verapamil, verapamil, reference compound], the “Motility with Verapamil (mean number of cells per filter)” value is 1116 cells per filter with B16F10 melanoma cells [1] (verapamil 100 μM, 0.5 mM K^+); 434^b cells per filter and 519 cells per filter in the data set on B16F10 melanoma cells [1] (verapamil 100 μM, 5 mM K^+); 1100 cells per filter in the data set on B16F10 melanoma cells [1] (verapamil 100 μM, 50 mM K^+). In addition, in the data set with B16F10 melanoma cells [1] (verapamil 100 μM, control, high K^+ and low K^+ conditions), the effect on motility entry was “did not reduce motility in a way corresponding to the reduction produced by Gd^3+ and Co^2+”.

In the case of `[Ca+2]` [Ca^2+], the “increase in the motility of the cells” value in the data set on B16F10 melanoma cells [1] (elevated Ca^2+ (4 mM) vs normal (0.4 mM)) is ~20%. Further, the “Motility (mean number of cells per filter)” value is 78 ± 4^b cells per filter with B16F10 melanoma cells [1] (extracellular Ca^2+ 0.4 mM (RPMI-E, normal), no bFGF) and 100 ± 6 cells per filter with B16F10 melanoma cells [1] (extracellular Ca^2+ 4.0 mM (RPMI-E4Ca, elevated), no bFGF).

In the case of `[Cl][Gd]([Cl])[Cl]` [GdCl3], the cell morphology result was “rounded and flattened cells with prominent vacuoles” in the data set with B16F10 melanoma cells [2] (20 μM Gd^3+, low K^+ (0.54 mM)); “larger, rounded cells devoid of pseudopodia” with B16F10 melanoma cells [2] (20 μM Gd^3+, normal K^+ (5.4 mM)); “the cells had flattened and spread further” with B16F10 melanoma cells [2] (20 μM in bathing solution). Moreover, the cells stained blue result in the data set with B16F10 cells [3] (setting [7]) is reported as “Less than 1%”. In addition, the “viability versus cells not treated” value in the data set on B16F10 cells [3] (setting [7]) is on record as “no difference in viability”. Besides, the “Trypan Blue exclusion of vacuolated cells (membrane integrity)” value with B16F10 cells [3] (after 20 μM Gd^3+, low K^+, 4 hours) is “vacuolated cells excluded dye”. Further, the “effect on cell growth after washout” value with B16F10 cells [4] was “No obvious inhibitory effect on cell growth”. Further, the “effect on voltage-gated channels” value in data set [5] was “no effect”. In addition, the “Motility (mean number of cells per filter)” value with B16F10 melanoma cells [1] (Gd 20 μM, K^+ 0.54 mM (RPMI-E2 low K^+)) is 240 ± 40^b cells per filter; in the data set on B16F10 melanoma cells [1] (Gd 20 μM, K^+ 54.0 mM (RPMI-E2 high K^+)), 113 ± 10 cells per filter; in the data set with B16F10 melanoma cells [1] (GdCl3 20 μM, High Ca^2+ HEPES Ringer solution, 2 h preincubation + 5 h assay, bFGF) it was 95 ± 6 cells per filter; with B16F10 melanoma cells [1] (setting [8]), 33 ± 6 cells per filter and 50 ± 10 cells per filter. For the same molecule, the “inhibition of cell motility” value is 71% with B16F10 melanoma cells [1] (GdCl3 20 μM, High Ca^2+ HEPES Ringer solution (Example 1)); 83% with B16F10 melanoma cells [1] (Gd^3+ 20 μM, 0.54 mM K^+); 90.5% in the data set with B16F10 melanoma cells [1] (Gd^3+ 20 μM, 54 mM K^+). The reduction of motility with B16F10 melanoma cells [1] (setting [8]) is 73% and 75%.

As to “bFGF: Basic fibroblast growth factor used to enhance motility”, the “Motility (mean number of cells per filter)” value in the data set on B16F10 melanoma cells [1] (bFGF 25 ng/ml in serum free RPMI-1640 in top well) was 180 ± 30 cells per filter. Moreover, the “increase in the motility of melanoma cells” value with B16F10 melanoma cells [1] (bFGF 25 ng/ml in serum free RPMI-1640 vs no bFGF) is recorded as “three-fold increase”.

Consider `[K+]` [K^+], for which the cell morphology result in the data set with B16F10 melanoma cells [2] (high K^+ (54 mM), no Gd^3+) was “rounder and exhibited pseudopodia that appeared blunted”; with B16F10 melanoma cells [2] (low K^+ (0.54 mM), no Gd^3+) it was “slightly more cells were observed with distinct lamellipodia”. In addition, the “Motility (mean number of cells per filter)” value with B16F10 melanoma cells [1] (K^+ 0.54 mM, absence of Gd) is reported as 1387 ± 103^b cells per filter; in the data set on B16F10 melanoma cells [1] (K^+ 2.75 mM, absence of Gd), 1164 ± 1006 cells per filter; in the data set with B16F10 melanoma cells [1] (K^+ 3.87 mM, absence of Gd) it was 591 ± 40 cells per filter; in the data set with B16F10 melanoma cells [1] (K^+ 5.4 mM (normal, RPMI-E2), absence of Gd) it was 475 ± 20 cells per filter; in the data set with B16F10 melanoma cells [1] (K^+ 10.0 mM, absence of Gd), 578 ± 15 cells per filter; in the data set with B16F10 melanoma cells [1] (K^+ 16.25 mM, absence of Gd) it was 494 ± 49 cells per filter. Also, the “Motility (mean number of cells per filter)” value in the data set on B16F10 melanoma cells [1] (K^+ 22.0 mM, absence of Gd) was determined as 558 ± 25 cells per filter; in the data set with B16F10 melanoma cells [1] (K^+ 27.5 mM, absence of Gd) it was 471 ± 57 cells per filter; in the data set on B16F10 melanoma cells [1] (K^+ 35.0 mM, absence of Gd), 646 ± 65 cells per filter; in the data set on B16F10 melanoma cells [1] (K^+ 54.0 mM, absence of Gd) it was 1188 ± 50 cells per filter.

For the molecule `[Cl-].[Cl-].[Co+2]` [CoCl2], in data set [6], the “inhibition of tumor cell motility” value is “completely ineffective”. Also, the “inhibition of cell motility” value with B16F10 melanoma cells [1] is “approximately 87%”. For the same molecule, the “Motility (mean number of cells per filter)” value in the data set on B16F10 melanoma cells [1] (2 mM) was determined as 43 ± 4 cells per filter.

For the molecule `[Cl][Tb]([Cl])[Cl]` [Tb^3+, TbCl3], in the data set with B16F10 melanoma cells [2] (20 μM in bathing solution), the cell morphology result is “the cells had flattened and spread further”.
